Assays:
Assay in all cases: relative viability (nuclei count vs DMSO), 5 days (fraction); higher = more cells survive
[1] = system: PC-3 [JPC-3]
Outline: (§1)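 Values are medians from duplicate plates. Each reflects relative viability, defined as the nuclei count of treated wells over that of vehicle wells. Lung cancer cell lines in 1536-well plates were pin-tool dosed one day after seeding with one drug alone or with a fixed anchor-drug dose plus five library-drug doses (not always all listed) in √10 steps, then fixed, stained and imaged at 4× after 5 days.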

[2] = system: NCI-H650
Outline: as §1

[3] = system: A-427
Outline: as §1

[4] = system: PC-14
Outline: as §1

[5] = system: NCI-H727
Outline: as §1

[6] = system: NCI-H460
Outline: as §1

[7] = system: NCI-H1793
Outline: as §1

[8] = system: H3255
Outline: as §1

[9] = system: COR-L23
Outline: as §1

[10] = system: SW 1573
Outline: as §1

[11] = system: NCI-H1563
Outline: as §1

[12] = system: NCI-H23
Outline: as §1

[13] = system: NCI-H838
Outline: as §1

[14] = system: LK-2
Outline: as §1

[15] = system: SW 900
Outline: as §1

[16] = system: LCLC-103H
Outline: as §1

[17] = system: HCC-44
Outline: as §1

[18] = system: 201T
Outline: as §1

[19] = system: NCI-H1944
Outline: as §1

[20] = system: LU99A
Outline: as §1

[21] = system: NCI-H2347
Outline: as §1

[22] = system: LCLC-97TM1
Outline: as §1

[23] = system: NCI-H1650
Outline: as §1

Oc1nc(-c2ccc(C(F)(F)F)cc2)nc2c1CSCC2 [XAV939] + COc1cccc2cc(-c3nc([C@H]4CC[C@H](C(=O)O)CC4)n4ncnc(N)c34)[nH]c12 [OSI-027] (partner 0.5 µM)
relative viability ([1]; first compound 0.08 µM): 0.756 | relative viability ([1]; first compound 0.253 µM): 0.611 | relative viability ([1]; first compound 0.8 µM): 0.777 | relative viability ([1]; first compound 2.53 µM): 0.599 | relative viability ([2]; first compound 0.08 µM): 0.52 | relative viability ([2]; first compound 0.253 µM): 0.565 | relative viability ([2]; first compound 0.8 µM): 0.493 | relative viability ([2]; first compound 2.53 µM): 0.37 | relative viability ([3]; first compound 0.08 µM): 0.49 | relative viability ([3]; first compound 0.253 µM): 0.427 | relative viability ([3]; first compound 0.8 µM): 0.419 | relative viability ([3]; first compound 2.53 µM): 0.393 | relative viability ([4]; first compound 0.08 µM): 1.09 | relative viability ([4]; first compound 0.253 µM): 0.772 | relative viability ([4]; first compound 0.8 µM): 0.725 | relative viability ([4]; first compound 2.53 µM): 0.639 | relative viability ([5]; first compound 0.08 µM): 0.696 | relative viability ([5]; first compound 0.253 µM): 0.495 | relative viability ([5]; first compound 0.8 µM): 0.744 | relative viability ([5]; first compound 2.53 µM): 0.514 | relative viability ([6]; first compound 0.08 µM): 0.904 | relative viability ([6]; first compound 0.253 µM): 0.555 | relative viability ([6]; first compound 0.8 µM): 0.745 | relative viability ([6]; first compound 2.53 µM): 0.631 | relative viability ([7]; first compound 0.08 µM): 0.308 | relative viability ([7]; first compound 0.253 µM): 0.232 | relative viability ([7]; first compound 0.8 µM): 0.298 | relative viability ([7]; first compound 2.53 µM): 0.27 | relative viability ([8]; first compound 0.08 µM): 0.555 | relative viability ([8]; first compound 0.253 µM): 0.584 | relative viability ([8]; first compound 0.8 µM): 0.6 | relative viability ([8]; first compound 2.53 µM): 0.384 | relative viability ([9]; first compound 0.08 µM): 0.824 | relative viability ([9]; first compound 0.253 µM): 0.765 | relative viability ([9]; first compound 0.8 µM): 0.77 | relative viability ([9]; first compound 2.53 µM): 0.618 | relative viability ([10]; first compound 0.08 µM): 0.602 | relative viability ([10]; first compound 0.253 µM): 0.556 | relative viability ([10]; first compound 0.8 µM): 0.542 | relative viability ([10]; first compound 2.53 µM): 0.494 | relative viability ([11]; first compound 0.08 µM): 0.844 | relative viability ([11]; first compound 0.253 µM): 0.769 | relative viability ([11]; first compound 0.8 µM): 0.708 | relative viability ([11]; first compound 2.53 µM): 0.614 | relative viability ([12]; first compound 0.08 µM): 0.65 | relative viability ([12]; first compound 0.253 µM): 0.555 | relative viability ([12]; first compound 0.8 µM): 0.628 | relative viability ([12]; first compound 2.53 µM): 0.432 | relative viability ([13]; first compound 0.08 µM): 0.375 | relative viability ([13]; first compound 0.253 µM): 0.371 | relative viability ([13]; first compound 0.8 µM): 0.365 | relative viability ([13]; first compound 2.53 µM): 0.301 | relative viability ([14]; first compound 0.08 µM): 0.168 | relative viability ([14]; first compound 0.253 µM): 0.232 | relative viability ([14]; first compound 0.8 µM): 0.188 | relative viability ([14]; first compound 2.53 µM): 0.206 | relative viability ([15]; first compound 0.08 µM): 0.779 | relative viability ([15]; first compound 0.253 µM): 0.572 | relative viability ([15]; first compound 0.8 µM): 0.687 | relative viability ([15]; first compound 2.53 µM): 0.476 | relative viability ([16]; first compound 0.08 µM): 0.534 | relative viability ([16]; first compound 0.253 µM): 0.443 | relative viability ([16]; first compound 0.8 µM): 0.463 | relative viability ([16]; first compound 2.53 µM): 0.432 | relative viability ([17]; first compound 0.08 µM): 0.611 | relative viability ([17]; first compound 0.253 µM): 0.533 | relative viability ([17]; first compound 0.8 µM): 0.476 | relative viability ([17]; first compound 2.53 µM): 0.726 | relative viability ([18]; first compound 0.08 µM): 0.61 | relative viability ([18]; first compound 0.253 µM): 0.487 | relative viability ([18]; first compound 0.8 µM): 0.575 | relative viability ([18]; first compound 2.53 µM): 0.622 | relative viability ([19]; first compound 0.08 µM): 0.441 | relative viability ([19]; first compound 0.253 µM): 0.393 | relative viability ([19]; first compound 0.8 µM): 0.403 | relative viability ([19]; first compound 2.53 µM): 0.367 | relative viability ([20]; first compound 0.08 µM): 0.303 | relative viability ([20]; first compound 0.253 µM): 0.348 | relative viability ([20]; first compound 0.8 µM): 0.329 | relative viability ([20]; first compound 2.53 µM): 0.268 | relative viability ([21]; first compound 0.08 µM): 0.571 | relative viability ([21]; first compound 2.53 µM): 0.217 | relative viability ([22]; first compound 0.08 µM): 0.643 | relative viability ([22]; first compound 0.253 µM): 0.566 | relative viability ([22]; first compound 0.8 µM): 0.545 | relative viability ([22]; first compound 2.53 µM): 0.609 | relative viability ([23]; first compound 0.08 µM): 0.817 | relative viability ([23]; first compound 0.253 µM): 0.6 | relative viability ([23]; first compound 0.8 µM): 0.742 | relative viability ([23]; first compound 2.53 µM): 0.443

From the supplement of paper PMC10307832
